The text below walks through data of patent publication EP0563112B1, “ENHANCED BIOAVAILABILITY PHARMACEUTICAL COMPOSITION CONTAINING PROBUCOL” (MERRELL DOW PHARMACEUTICALS INC., priority 1990, dated 1992).

For data set [1] the following is noted: Heeg and Tachizawa 1980; cited from earlier work.
Data set [2] can be described thus: Solubility determination of probucol in oils and binary solvent systems (HPLC assay). It is filed as physicochemical. The text has this:
Captex® 200 is a propylene glycol ester of caprylic (C₈) and capric (C₁₀) fatty acids obtained by fractionation of certain coconut oil fatty acids and is known generically as propylene glycol dicaprylate/dicaprate. Captex® 300 is a caprylic and capric acid triglyceride obtained by fractionation and subsequent esterification of coconut oil and is known generically as caprylic/capric triglyceride. Capmul® MCM is a mono and diglyceride of caprylic and capric acids.
Eight grams of each oil were transferred into a glass tube with a teflon liner screw cap, and 2.5 g of probucol were added to each tube. The tubes were capped and shaken by hand until the probucol particles were wetted. The tubes were then rotated for at least 48 hours on a test tube rotating apparatus. The solubility of probucol was determined using a high performance liquid chromatography (HPLC) assay procedure.
In order to determine if the solubility of probucol could be enhanced by incorporating absolute ethanol in the oil, three binary systems: safflower oil:ethanol (90:10), polyethylene glycol (PEG) 400:ethanol (90:10, 80:20, 70:30), and Captex® 200:ethanol (95:5, 90:10, 85:15, 80:20, and 75:25) were evaluated. The solubility data shown in Table II indicate that in each case the solubility of probucol increased in the presence of ethanol.

Take `CC(C)(Sc1cc(C(C)(C)C)c(O)c(C(C)(C)C)c1)Sc1cc(C(C)(C)C)c(O)c(C(C)(C)C)c1` [probucol, 2,2'-bis (3,5-di-tertiarybutyl-4-hydroxyphenylthio)propane]: the “bioavailability of probucol from tablet dosage form” value in data set [1] is on record as 2-8%. The “Solubility (%w/v)” value in data set [2] (Captex® 200:Ethanol 75:25) turned out to be 26.0 %w/v; in data set [2] (Captex® 200:Ethanol 80:20) it was 26.0 %w/v; in data set [2] (Captex® 200:Ethanol 85:15), 25.0 %w/v; in data set [2] (Captex® 200:Ethanol 90:10) it was 24.0 %w/v; in data set [2] (Captex® 200:Ethanol 95:5), 23.0 %w/v; in data set [2] (PEG 400 100:00) it was 2.8 %w/v. Besides, the “Solubility (%w/v)” value in data set [2] (PEG 400:Ethanol 80:20) is reported as 9.5 %w/v; in data set [2] (PEG 400:Ethanol 90:10), 5.8 %w/v; in data set [2] (PEG 400 Ethanol 70:30), 13.1 %w/v; in data set [2] (Safflower Oil:Ethanol 90:10) it was 11.5 %w/v; in data set [2] (in Capmul® MCM), 6.3 % w/v; in data set [2] (in Captex® 200), 18.2 % w/v. For the same molecule, the “Solubility (%w/v)” value is 12.5 % w/v in data set [2] (in Captex® 300); 5.8 % w/v in data set [2] (in Corn oil); 5.5 % w/v in data set [2] (in Olive oil); 5.6 % w/v in data set [2] (in Peanut oil); 5.9 % w/v in data set [2] (in Safflower oil); 5.8 % w/v in data set [2] (in Sunflower oil). Further, the “Solubility (%w/v)” value in data set [2] (in Vegetable oil) is listed as 5.8 % w/v.
